Laboratory results as given in US20260271933A1 (priority 2023, published 2026).

Legend:
[1] = test system: Phytophthora infestans; experiment: whole plant or invertebrate; type: in vivo; settings: in Solanum lycopersicum, foliar, read-out: control of Phytophthora infestans
[2] = test system: Pythium ultimum; experiment: Pythium ultimum / liquid culture (seedling damping off); type: cell-based; settings: Globisporangium ultimum, growth inhibition determined photometrically, compared to untreated control
Method: Pythium ultimum/Liquid Culture (Seedling Damping Off)
Mycelia fragments and oospores of a newly grown liquid culture of the fungus are directly mixed into nutrient broth (PDB potato dextrose broth). After placing a (DMSO) solution of test compound into a microtiter plate (96-well format), the nutrient broth containing the fungal mycelia/spore mixture is added.
The test plates are incubated at 24° C. and the inhibition of growth is determined photometrically 2-3 days after application.

[3] = test system: Plasmopara viticola; experiment: whole plant or invertebrate; type: in vivo; settings: foliar

COC(=O)Nc1ccc(-c2cnc3c(C)cc(C(=O)N4CCN(C)c5cc(F)ccc54)cn23)cn1 [Compound 2, methyl N-[5-[6-(6-fluoro-4-methyl-2,3-dihydroquinoxaline-1-carbonyl)-8-methyl-imidazo[1,2-a]pyridin-3-yl]-2-pyridyl]carbamate]
≥ 80%: pest or weed control at 200 ppm [1] | inhibition of growth at 20 ppm [2] | pest or weed control at 200 ppm [3]

COC(=O)Nc1ccc(-c2cnc3ccc(C(=O)N4CCN(C)c5cc(F)ccc54)cn23)cn1 [Compound 3, methyl N-[5-[6-(6-fluoro-4-methyl-2,3-dihydroquinoxaline-1-carbonyl)imidazo[1,2-a]pyridin-3-yl]-2-pyridyl]carbamate]
≥ 80%: pest or weed control at 200 ppm [1] | inhibition of growth at 20 ppm [2] | pest or weed control at 200 ppm [3]

COC(=O)Nc1ccc(-c2cnc3ccc(C(=O)N4CC(C(=O)OC)Cc5ccccc54)cn23)cn1 (stereo not drawn) [Compound 11, methyl 1-[3-[6-(methoxycarbonylamino)-3-pyridyl]imidazo[1,2-a]pyridine-6-carbonyl]-3,4-dihydro-2H-quinoline-3-carboxylate]
≥ 80%: pest or weed control at 200 ppm [1] | inhibition of growth at 20 ppm [2] | pest or weed control at 200 ppm [3]

COC(=O)Nc1ccc(-c2cnc3ccc(C(=O)N4CCCc5c4ccc(F)c5F)cn23)cn1 [Compound 21, methyl N-[5-[6-(5,6-difluoro-3,4-dihydro-2H-quinoline-1-carbonyl)imidazo[1,2-a]pyridin-3-yl]-2-pyridyl]carbamate]
≥ 80%: pest or weed control at 200 ppm [1] | inhibition of growth at 20 ppm [2] | pest or weed control at 200 ppm [3]

COC(=O)Nc1ccc(-c2cnc3ccc(C(=O)N(C)c4ccc(F)cc4OC)cn23)cn1 [Compound 30, methyl N-[5-[6-[(4-fluoro-2-methoxy-phenyl)-methyl-carbamoyl]imidazo[1,2-a]pyridin-3-yl]-2-pyridyl]carbamate]
≥ 80%: pest or weed control at 200 ppm [1] | inhibition of growth at 20 ppm [2] | pest or weed control at 200 ppm [3]

CCOC(=O)C1Cc2cc(F)ccc2N(C(=O)c2ccc3ncc(-c4ccc(NC(=O)OC)nc4)n3c2)C1 (stereo not drawn) [Compound 35, ethyl 6-fluoro-1-[3-[6-(methoxycarbonylamino)-3-pyridyl]imidazo[1,2-a]pyridine-6-carbonyl]-3,4-dihydro-2H-quinoline-3-carboxylate]
≥ 80%: pest or weed control at 200 ppm [1] | inhibition of growth at 20 ppm [2] | pest or weed control at 200 ppm [3]

COC(=O)Nc1ccc(-c2cnc3ccc(C(=O)N4CCN(C5CC5)c5cc(F)ccc54)cn23)cn1 [Compound 51, methyl N-[5-[6-(4-cyclopropyl-6-fluoro-2,3-dihydroquinoxaline-1-carbonyl)imidazo[1,2-a]pyridin-3-yl]-2-pyridyl]carbamate]
≥ 80%: pest or weed control at 200 ppm [1] | inhibition of growth at 20 ppm [2] | pest or weed control at 200 ppm [3]

COC(=O)Nc1ccc(-c2cnc3ccc(C(=O)N4CCCc5cc(F)c(OC)cc54)cn23)cn1 [Compound 64, methyl N-[5-[6-(6-fluoro-7-methoxy-3,4-dihydro-2H-quinoline-1-carbonyl)imidazo[1,2-a]pyridin-3-yl]-2-pyridyl]carbamate]
≥ 80%: pest or weed control at 200 ppm [1] | inhibition of growth at 20 ppm [2] | pest or weed control at 200 ppm [3]

COC(=O)Nc1ccc(-c2cnc3ccc(C(=O)N4CCCc5cc(F)ccc54)cn23)cn1 [Compound 66, methyl N-[5-[6-(6-fluoro-3,4-dihydro-2H-quinoline-1-carbonyl)imidazo[1,2-a]pyridin-3-yl]-2-pyridyl]carbamate]
≥ 80%: pest or weed control at 200 ppm [1] | inhibition of growth at 20 ppm [2] | pest or weed control at 200 ppm [3]
